Counter-ions that a name gives are not always drawn.
What follows are molecules tested against GST-Syk Full Protein (human) (Homo sapiens, UniProt P43405) (assay: Syk kinase inhibition test (HTRF method)). Details: HTRF, 100 μM ATP, 30 min room temperature, average; read-out: sykHTRF ave IC50.
Type: biochemical
Description: Syk Kinase Inhibition Test (HTRF Method)
After the compounds were serially diluted with dimethylsulfoxide (DMSO), 10 μL of those 10-fold diluted with kinase buffer (20 mM HEPES pH 7.0, 10 mM MgCl2, 50 mM NaCl, 1 mM 2-ME, 0.05% BSA) was added to opti-plate HTRF-96 (Packard) (final DMSO concentration: 2%). 20 μL of a substrate solution (kinase buffer as mentioned above containing Syk Specific-Peptide Substrate Biot-EDPDYEWPSA-NH2 (Peptide Laboratory) 625 nM, 250 μM ATP (SIGMA) was added (final substrate concentration 250 nM, 100 μM ATP), and further 20 μL of an enzyme solution (kinase buffer as mentioned above containing GST-Syk Full Protein (human) 16 nM) (final concentration 6.4 nM) was added and the mixture was immediately stirred with a plate shaker to start enzyme reaction. After reacted at room temperature (20 to 25° C.) for 30 minutes, the enzyme reaction was terminated by adding 100 μL/well of a buffer for terminating and detecting the reaction (30 mM HEPES pH 7.0, 150 mM KF, 0.15% BSA, 0.075% Tween-20, 75 mM EDTA) containing HTRF reagent (5 μg/ml XL665-Streptavidin (CIS bio), 170 ng/ml Eu(K)-anti-PhosphoTyrosin, PT-66 (CIS bio)) (final concentration 20 mM HEPES pH 7.0, 100 mM KF, 0.1% BSA, 0.05% Tween-20, 50 mM EDTA). After allowed to stand still at room temperature for 1 hour, inhibitory effect of a compound against Syk kinase enzymatic activity was evaluated by measuring 665/620 fluorescence ratio to excitation light at 337 nm by ARVO (Wallac).

| SMILES | IC50 [nM] |
| --- | --- |
| CCOC(=O)Cc1ccnc(Nc2cccc(-c3cnc([C@H](C)NC(C)=O)s3)n2)c1 [Compound A-329] | 100 to 1000 |
| CC(=O)N[C@@H](C)c1nc(C(=O)O)c(-c2cccc(Nc3cc(C)ccn3)n2)s1 [Compound A-109] | > 1000 |
| Cc1ccnc(Nc2cccc(-c3cnc([C@H](CCC(=O)OCc4ccccc4)NC(=O)OC(C)(C)C)s3)n2)c1 [Compound A-96] | > 1000 |
| Cc1ccnc(Nc2cccc(-c3cnc(CCc4cccc(C(=O)N5CCC(O)CC5)c4)s3)n2)c1 [Compound A-281] | 100 to 1000 |
| Cc1ccnc(Nc2cccc(-c3cnc(CCc4ccc(OCc5ccccc5)cc4)s3)n2)c1 [Compound A-133] | > 1000 |
| Cc1ccnc(Nc2cccc(-c3cnc([C@H](Cc4ccc(OCc5ccccc5)cc4)NC(=O)OC(C)(C)C)s3)n2)c1 [Compound A-85] | > 1000 |

Same assay, conditions: Tables 1-x, compounds A; read-out: sykHTRF ave IC50

| SMILES | IC50 [nM] |
| --- | --- |
| CC(C)(C(=O)O)C1CCN(c2ncc(-c3cccc(Nc4cnccn4)n3)s2)CC1 [Compound A-707, 2-methyl-2-(1-{5-[6-(pyrazin-2-ylamino)pyridin-2-yl]thiazol-2-yl}piperidin-4-yl)propionic acid dihydrochloride] | < 100 |
| Cc1ccnc(Nc2cccc(-c3cnc(NCCN4CCOCC4)s3)n2)c1 [Compound A-695, N-{5-[6-(4-methylpyridin-2-ylamino)pyridin-2-yl]thiazol-2-yl}-N-(2-morpholin-4-ylethyl)amine] | < 100 |
| Cc1ccnc(Nc2cccc(-c3cnc(N4CCC(C(=O)N5CCNC(=O)C5)CC4)s3)n2)c1 [Compound A-453, 4-(1-{5-[6-(4-methylpyridin-2-ylamino)pyridin-2-yl]thiazol-2-yl}piperidine-4-carbonyl)piperazin-2-one] | < 100 |
| Cc1ccnc(Nc2cccc(-c3cnc(N4CCCC(CCCCC(=O)O)C4)s3)n2)c1 (stereo not shown) [Compound A-719, 5-(1-{5-[6-(4-methylpyridin-2-ylamino)pyridin-2-yl]thiazol-2-yl}piperidin-3-yl)pentanoic acid dihydrochloride] | < 100 |
| Cc1ccnc(Nc2cccc(-c3cnc([C@@H](N)Cc4ccc(O)cc4)s3)n2)c1 [Compound A-389] | 100 to 1000 |
| CN(CCO)c1ncc(-c2cccc(Nc3cc(CC(=O)O)ccn3)n2)s1 [Compound A-550] | 100 to 1000 |
| O=C(O)CCC1CCN(c2ncc(-c3cccc(Nc4ccccn4)n3)s2)CC1 [Compound A-682] | 100 to 1000 |
| Cc1ccnc(Nc2cccc(-c3cnc(CSc4ccc(C(=O)O)cc4)s3)n2)c1 [Compound A-619] | 100 to 1000 |
| Cc1ccnc(Nc2cccc(-c3cnc(N4CCC(CC(=O)O)CC4)s3)n2)c1 [Compound A-653, (1-{5-[6-(4-methylpyridin-2-ylamino)pyridin-2-yl]thiazol-2-yl}piperidin-4-yl)acetic acid] | < 100 |
| Cc1ccnc(Nc2cccc(-c3cnc(N4CCC(NC(=O)C5CCOCC5)CC4)s3)n2)c1 [Compound A-661] | 100 to 1000 |
| CC(C)c1ccnc(Nc2cccc(-c3cnc(N4CCC(CC(=O)O)CC4)s3)n2)c1 [Compound A-711, (1-{5-[6-(4-isopropylpyridin-2-ylamino)pyridin-2-yl]thiazol-2-yl}piperidin-4-yl)acetic acid dihydrochloride] | < 100 |
| CC(=O)NCCN(c1ncc(-c2cccc(Nc3cc(C)ccn3)n2)s1)C1CCN(C(C)=O)CC1 [Compound A-521] | 100 to 1000 |
| CN(c1ncc(-c2cccc(Nc3cc(C(F)(F)F)ccn3)n2)s1)C(C)(C)c1ccc(C(=O)O)cc1 [Compound A-654, 4-[1-methyl-1-(N-methyl-N-{5-[6-(4-trifluoromethylpyridin-2-ylamino)pyridin-2-yl]thiazol-2-yl}amino)ethyl]benzoic acid] | < 100 |
| Cc1ccnc(Nc2cccc(-c3cnc(N4CCC(NS(C)(=O)=O)CC4)s3)n2)c1 [Compound A-484, N-(1-{5-[6-(4-methylpyridin-2-ylamino)pyridin-2-yl]thiazol-2-yl}piperidin-4-yl)methanesulfonamide] | < 100 |
| O=C(O)C1CCN(c2ncc(-c3cccc(Nc4ccccn4)n3)s2)CC1 [Compound A-683] | 100 to 1000 |
| CN(c1ncc(-c2cccc(Nc3cc(C(F)(F)F)ccn3)n2)s1)[C@H]1CC[C@H](C(=O)O)CC1 [Compound A-638, trans-4-(N-methyl-N-{5-[6-(4-trifluoromethylpyridin-2-ylamino)pyridin-2-yl]thiazol-2-yl}amino)cyclohexanecarboxylic acid] | < 100 |
| Cc1ccnc(Nc2cccc(-c3cnc(N4CCC[C@H]4C(=O)O)s3)n2)c1 [Compound A-527] | 100 to 1000 |

| SMILES | IC50 [nM] |
| --- | --- |
| Cc1cc(C)nc(Nc2cccc(-c3cnc(N4CCC(CC(=O)O)CC4)s3)n2)c1 [Compound A-623] | 100 to 1000 |
| Cc1ccnc(Nc2cccc(-c3cnc(N4CCC[C@H]4C(=O)NCC(C)(C)C)s3)n2)c1 [Compound A-660] | 100 to 1000 |
| CN(CCC/C=C/C(=O)O)c1ncc(-c2cccc(Nc3cc(C(F)(F)F)ccn3)n2)s1 [Compound A-657, (E)-6-(N-methyl-N-{5-[6-(4-trifluoromethylpyridin-2-ylamino)pyridin-2-yl]thiazol-2-yl}amino)hex-2-enoic acid dihydrochloride] | < 100 |
| Cc1ccnc(Nc2cccc(-c3cnc(CN(C)C(C)(C)C(N)=O)s3)n2)c1 [Compound A-720, 2-methyl-2-(N-methyl-N-{5-[6-(4-methylpyridin-2-ylamino)pyridin-2-yl]thiazol-2-ylmethyl}amino)propionamide] | < 100 |
| Cc1ccnc(Nc2cccc(-c3cnc(N4CCC(C5=NC(C)(C)CO5)CC4)s3)n2)c1 [Compound A-456] | 100 to 1000 |
| COC(=O)N(CCC(=O)O)Cc1ncc(-c2cccc(Nc3cc(C)ccn3)n2)s1 [Compound A-584] | 100 to 1000 |
| CC(C)(C)c1ccnc(Nc2cccc(-c3cnc(N4CCC(CC(=O)O)CC4)s3)n2)c1 [Compound A-710, (1-{5-[6-(4-tert-butylpyridin-2-ylamino)pyridin-2-yl]thiazol-2-yl}piperidin-4-yl)acetic acid dihydrochloride] | < 100 |
| CNC(=O)C1CCN(Cc2ncc(-c3cccc(Nc4cc(C)ccn4)n3)s2)CC1 [Compound A-686] | 100 to 1000 |
| Cc1ccnc(Nc2cccc(-c3cnc(N(C)Cc4ccc(OCc5ccccc5)cc4)s3)n2)c1 [Compound A-462] | 100 to 1000 |
| Cc1ccnc(Nc2cccc(-c3cnc(N(C)C4CCC(C(=O)N(C)C)CC4)s3)n2)c1 (stereo not shown) [Compound A-447] | 100 to 1000 |
| Cc1ccnc(Nc2cccc(-c3cnc(N4CCC[C@H]4C(=O)N4CCC(O)CC4)s3)n2)c1 [Compound A-659] | 100 to 1000 |
| Cc1ccnc(Nc2cccc(-c3cnc(COCC(=O)O)s3)n2)c1 [Compound A-615, {5-[6-(4-methylpyridin-2-ylamino)pyridin-2-yl]thiazol-2-ylmethoxy}acetic acid hydrochloride] | < 100 |
| Cc1ccnc(Nc2cccc(-c3cnc(N(Cc4ccccc4)C[C@H]4CC[C@H](C(=O)O)CC4)s3)n2)c1 [Compound A-622, trans-4-[(N-benzyl-N-{5-[6-(4-methylpyridin-2-ylamino)pyridin-2-yl]thiazol-2-yl}amino)methyl]cyclohexanecarboxylic acid] | < 100 |
| Cc1ccnc(Nc2cccc(-c3cnc(N4CCC(NC(=O)C5CCC(O)CC5)CC4)s3)n2)c1 (stereo not shown) [Compound A-662] | 100 to 1000 |
| Cc1ccnc(Nc2cccc(-c3cnc(N4CCC(C(=O)NC(C)(C)CO)CC4)s3)n2)c1 [Compound A-455] | 100 to 1000 |
| O=C(O)CC1CCN(c2ncc(-c3cccc(Nc4ccc(Cl)cn4)n3)s2)CC1 [Compound A-636, (1-{5-[6-(5-chloropyridin-2-ylamino)pyridin-2-yl]thiazol-2-yl}piperidin-4-yl)acetic acid dihydrochloride] | < 100 |
| O=C(O)CC1CCN(c2ncc(-c3cccc(Nc4cc(OCC(F)(F)F)ccn4)n3)s2)CC1 [Compound A-700, [1-(5-{6-[4-(2,2,2-trifluoroethoxy)pyridin-2-ylamino]pyridin-2-yl}thiazol-2-yl)piperidin-4-yl]acetic acid dihydrochloride] | < 100 |

Same assay, conditions: Tables 2-x, thiophene compounds B; read-out: sykHTRK ave IC50

| SMILES | IC50 [nM] |
| --- | --- |
| Cc1ccnc(Nc2cccc(-c3ccc(C(=O)N[C@H](C(=O)O)C(C)C)s3)n2)c1 [Compound B-117] | 100 to 1000 |
| Cc1ccnc(Nc2cccc(-c3ccc(C(=O)N4CCC(CC(=O)O)CC4)s3)n2)c1 [Compound B-113] | 100 to 1000 |
| Cc1ccnc(Nc2cccc(-c3ccc(C(=O)N(C)Cc4ccc(C(=O)O)cc4)s3)n2)c1 [Compound B-122] | 100 to 1000 |
| Cc1ccnc(Nc2cccc(-c3ccc(COc4ccc(C(=O)O)cc4)s3)n2)c1 [Compound B-105] | 100 to 1000 |
| CC(=O)c1ccc(-c2cccc(N(C)c3cc(C)ccn3)n2)s1 [Compound B-90] | > 1000 |
| CC(=O)N(Cc1ccc(C(=O)O)cc1)Cc1ccc(-c2cccc(Nc3cc(C)ccn3)n2)s1 [Compound B-119, 4-[(N-acetyl-N-{5-[6-(4-methylpyridin-2-ylamino)pyridin-2-yl]thiophen-2-ylmethyl}amino)methyl]benzoic acid] | < 100 |

From patent US7803801B2, “Aminopyridine compounds having Syk inhibitory activity” (Japan Tobacco, Inc., priority 2005, dated 2010)
